What was measured:
Caki-1 = experiment: in vivo anti-tumor efficacy, renal xenograft model Caki-1; settings: Caki-1, 100 mg/kg/d
[1] = system: metastatic colorectal cancer; experiment: phase I/II study of the combination of Compound A1 with Compound Mixture B1 (UMIN000017114); assay type: in vivo, patients
Source text: The key eligibility criteria were patients with metastatic colorectal cancer refractory or intolerant to fluoropyrimidine, irinotecan, oxaliplatin, anti-angiogenesis inhibitor and anti-EGFR antibody (if wild-type RAS) and without prior regorafenib and Compound Mixture B1 treatment; at least one measurable lesion; and ECOG performance status of 0 or 1.
Secondary endpoints included overall survival (OS), PFS, objective response rate, disease control rate, safety, and pharmacokinetic parameters.
Key Inclusion Criteria: • 1) Written informed consent • 2) >=20 years old • 3) Histologically or cytologically proven adenocarcinoma of colon or rectum (except appendiceal cancer), and KRAS test were carried out. • 4) Prior chemotherapy was discontinued due to disease progression, or an adverse event. • 5) No prior treatment with Regorafenib • 6) ECOG Performance Status of 0 or 1 • 7) Adequate oral intake • 8) With measurable disease according to RECIST • 9) Adequate organ function within 14 days prior to enrollment. • a. Hemoglobin>=9.0 g/d • b. Absolute neutrophil count>=1,500/mm3 • c. Platelet count>=100,000/mm3 • d with no liver metastasis, AST/ALT<=ULNx1.5 and T-Bil<=UNL with liver metastasis, AST/ALT<=ULNx2.5 and T-Bil<=UNL • e Serum creatinine<=1.5 mg/dL • 10) Women of childbearing potential must have a negative pregnancy test within 7 days prior to enrollment. […]

HT-29 = experiment: in vivo anti-tumor efficacy, colorectal xenograft model HT-29
SKOV3 = experiment: in vivo anti-tumor efficacy, ovarian xenograft model SKOV3; settings: SKOV3, 50 mg/kg/d
GS-9L = experiment: in vivo anti-tumor efficacy, glioblastoma GS-9L syngeneic rat tumor model; settings: 50 mg/kg/d
PAC-120 = experiment: in vivo anti-tumor efficacy, hormone-dependent prostate xenograft model PAC-120; settings: PAC-120, 100 mg/kg/d
Calu-6 = experiment: in vivo anti-tumor efficacy, non-small-cell lung xenograft model Calu-6; settings: Calu-6, 50 mg/kg/d
Rip-Tag = experiment: in vivo anti-tumor efficacy, pancreas murine transgenic model Rip-Tag
NCI-H460 = experiment: in vivo anti-tumor efficacy, non-small-cell lung xenograft model NCI-H460; settings: NCI-H460, 25 mg/kg/d
FaDu = experiment: in vivo anti-tumor efficacy, head and neck xenograft model FaDu; settings: 100 mg/kg/d

Compound: COC(=O)c1ccc2c(c1)NC(=O)/C2=C(\Nc1ccc(N(C)C(=O)CN2CCN(C)CC2)cc1)c1ccccc1 [Compound A, 3-Z-[1-(4-(N-((4-methyl-piperazin-1-yl)-methylcarbonyl)-N-methyl-amino)-anilino)-1-phenyl-methylene]-6-methoxycarbonyl-2-indolinone]
- Efficacy T/C (Caki-1): T/C 13% @ 100 mg/kg/d
- Two dose reduction of nintedanib, Reason ([1]; All enrolled patients, N = 35): DILI (cycle 1, cycle 4)
- patients requiring at least one dose reduction of nintedanib ([1]; all enrolled 35 patients, combination treatment): Five
- Efficacy T/C (HT-29; HT-29 colorectal model, 100 mg/kg/d, T/C = reduction of tumor size in % of the control): T/C 16% @ 100 mg/kg/d
- Efficacy (HT-29; HT-29 large tumors): tumor volume reduction
- Efficacy T/C (SKOV3): T/C 19% @ 50 mg/kg/d
- Efficacy T/C (GS-9L): T/C 32% @ 50 mg/kg/d
- Efficacy T/C (PAC-120): T/C 34% @ 100 mg/kg/d
- Efficacy T/C (Calu-6): T/C 24% @ 50 mg/kg/d
- Efficacy (Rip-Tag): interference with tumor
- Efficacy T/C (NCI-H460): T/C 54% @ 25 mg/kg/d
- Efficacy T/C (FaDu): T/C 11% @ 100 mg/kg/d

From US20190160054A1, “PHARMACEUTICAL COMBINATION OF NINTEDANIB, TRIFLURIDINE AND TIPIRACIL FOR TREATING COLORECTAL CANCER” (Boehringer Ingelheim International GmbH, priority 2016, published 2019)
